Source: paper PMC9735679, “Identification and Evolution of a Natural Tetr Protein Based on Molecular Docking and Development of a Fluorescence Polari-Zation Assay for Multi-Detection of 10 Tetracyclines in Milk” (Foods, 2022)
Like-named read-outs stand apart in the source and are kept apart here.

How the values were obtained:
Assay type in all cases: binding
natural TetR [1] = molecular target: T1, natural TetR (Escherichia coli, UniProt P04483); experiment: Fluorescence polarization assay (FPA) with natural TetR
T1 construct: made in house
Procedure: (§1) The FPA method was performed as follows. A total of 50 μL mutant, 50 μL TCs solution, and 50 μL fluorescent tracer were added into the wells of a 96-well microplate (in triplicate) and incubated for 2 min. Then the fluorescence polarization (FP) value of each well was recorded (λex 485 nm, λem 528 nm, emission cutoff of 515 nm). During the experiments, the two fluorescent tracers were compared, and several other parameters were optimized, including tracer concentration, mutant concentration, Mg^2+ concentration and incubation time. The 10 TCs and several other classes of drugs were all tested by this method. The competitive curve was developed by plotting the FP/FP0 values (the fluorescence polarization value at each concentration divided by that of zero concentration) versus the concentrations of the TCs (log C). Based on the developed competitive curve, the half of inhibition (IC50) and the limit of detection (IC10) for each drug were determined, respectively.
(§2) This is the first study reporting an FPA method for the determination of TCs. Under the optimal conditions, the 10 TCs were diluted with the extracts of a blank milk sample to be analyzed, respectively. […] During the experiments, the natural TetR was also used to perform the FPA method as described above.

TetR mutant [2] = molecular target: T2, TetR mutant (Escherichia coli, UniProt P04483, H139W); experiment: Fluorescence polarization assay (FPA) with TetR mutant; conditions: for LOD (limit of detection, IC10) / inhibition ratio (1-FP/FP0) / FP values at 0 and 100 ng/mL: TetR mutant; for LOD (limit of detection, IC10): FPA, FA-MC tracer, drugs diluted with blank milk extract; for inhibition ratio (1-FP/FP0): 100 ng/mL; for FP values at 0 and 100 ng/mL: either tracer (FITC-MC or FA-MC), specificity test
T2 construct: made in house; host or cells: E. coli Rosetta-gami(BL21), vector pET28a
Procedure: as §1
For obtaining the best method performance, several parameters were optimized with DMC as the representative. Firstly, the concentrations of FA-MC and the mutant were optimized. During the experiments, the FA-MC and the mutant at different concentrations were mixed with the same concentration of DMC to perform the assay. […] Secondly, the concentration of Mg^2+ (MgCl2) was optimized. […] Thirdly, the competition time was optimized.
as §2

natural TetR [3] = molecular target: T1, natural TetR; experiment: Surface plasmon resonance affinity, natural TetR; conditions: for Kd: KD (equilibrium dissociation constant, Kd/Ka); for Kd / koff (dissociation rate constant): SPR
Procedure: (§3) After the experiments, the association constant (Ka), the dissociation constant (Kd), and the equilibrium dissociation constant (KD = Kd/Ka) for each drug were calculated. For convenience in comparing their affinities, the absolute affinity constant (KA = […]) for each drug was also calculated.

TetR mutant [4] = molecular target: T2, TetR mutant; experiment: Surface plasmon resonance affinity, TetR mutant; conditions: SPR; for Kd: KD (equilibrium dissociation constant, Kd/Ka)
Procedure: as §3
The primers were designed according to the virtual model: mutant for, […]; mutant rev, […]. The amplified gene was inserted into pET28a to construct the express vector that was transformed into E. coli Rosetta-gami(BL21) to express the mutant, and these procedures were according to our recent report. The obtained TetR mutant was characterized by using SDS-PAGE and western blotting according to our recent report, and its recognition ability for the 10 TCs was evaluated by the following FPA method. Furthermore, its recognition mechanisms and affinities for the 10 TCs were also determined as described above.

[5] = read-out: Ka (association constant), TetR without Mg2+, SPR
[6] = read-out: Ka (association constant), TetR+Mg2+, SPR

Row | Compound | IC50 (natural TetR [1]) [nM] | IC50 (TetR mutant [2]) [nM] | LOD (limit of detection, IC10) (TetR mutant [2]) [ng/mL] | Kd (natural TetR [3]; TetR without Mg2+) [nM] | Kd (natural TetR [3]; TetR+Mg2+) [nM] | koff (dissociation rate constant) (natural TetR [3]; TetR without Mg2+) [s⁻¹] | koff (dissociation rate constant) (natural TetR [3]; TetR+Mg2+) [s⁻¹] | kon (natural TetR [3]; [5]) [M⁻¹ s⁻¹] | kon (natural TetR [3]; [6]) [M⁻¹ s⁻¹] | Kd (TetR mutant [4]; TetR mutant without Mg2+) [nM] | Kd (TetR mutant [4]; TetR mutant+Mg2+) [nM] | Dissociation rate constant (koff) (TetR mutant [4]; TetR mutant without Mg2+) [s⁻¹] | Dissociation rate constant (koff) (TetR mutant [4]; TetR mutant+Mg2+) [s⁻¹] | inhibition ratio (1-FP/FP0) (TetR mutant [2]; tracer FA-MC) [%] | inhibition ratio (1-FP/FP0) (TetR mutant [2]; tracer FITC-MC) [%] | FP values at 0 and 100 ng/mL (TetR mutant [2])
1 | CN(C)[C@@H]1C(O)=C(C(N)=O)C(=O)[C@@]2(O)C(O)=C3C(=O)c4c(O)ccc(Cl)c4[C@@](C)(O)[C@H]3C[C@@H]12 [CTC, chlortetracycline] | 167 | 115 | 1.4 | 4990 | 2560 | 0.0148 | 0.0113 | 2970 | 4430 | 16.3 | 9.11 | 0.000822 | 0.000404 |  |  | 
2 | C[C@H]1c2cccc(O)c2C(=O)C2=C(O)[C@]3(O)C(=O)C(C(N)=O)=C(O)[C@@H](N(C)C)[C@@H]3[C@@H](O)[C@@H]21 [DC, doxycycline] | 82.4 | 68.2 | 1.0 | 21.1 | 41.1 | 0.00113 | 0.0018 | 53400 | 43900 | 0.249 | 0.641 | 6.65e-05 | 0.000113 |  |  | 
3 | CN(C)[C@@H]1C(O)=C(C(N)=O)C(=O)[C@@]2(O)C(O)=C3C(=O)c4c(O)ccc(Cl)c4[C@@H](O)[C@H]3C[C@@H]12 [DMC, demeclocycline] | 66.7 | 33.3 | 0.4 | 74.4 | 27.6 | 0.000206 | 0.000127 | 2770 | 4610 | 3.1 | 0.0928 | 1.72e-05 | 4.7e-06 | 69 | 52 | 
4 | CN(C)[C@@H]1C(O)=C(C(=O)NCNCCCC[C@H](N)C(=O)O)C(=O)[C@@]2(O)C(O)=C3C(=O)c4c(O)cccc4[C@@](C)(O)[C@H]3C[C@@H]12 [LMC, Lymecycline] | 92.3 | 75.8 | 1.0 | 366 | 263 | 0.00116 | 0.00121 | 3170 | 4590 | 2.54 | 1.09 | 7.25e-05 | 0.00011 |  |  | 
5 | CN(C)c1ccc(O)c2c1C[C@H]1C[C@H]3[C@H](N(C)C)C(O)=C(C(N)=O)C(=O)[C@@]3(O)C(O)=C1C2=O [MC, minocycline] | 94.9 | 52 | 0.5 | 112 | 70.3 | 0.000507 | 0.000511 | 4540 | 7270 | 3.1 | 0.191 | 4.23e-05 | 3.19e-05 |  |  | 
6 | C=C1c2cccc(O)c2C(=O)C2=C(O)[C@]3(O)C(=O)C(C(N)=O)=C(O)[C@@H](N(C)C)[C@@H]3[C@@H](O)[C@H]12 [MTC, Methacycline] | 114 | 110 | 1.5 | 111 | 122 | 0.00016 | 0.000162 | 1440 | 1330 | 3.97 | 0.3 | 5.71e-06 | 5.59e-06 |  |  | 
7 | CN(C)[C@@H]1C(O)=C(C(N)=O)C(=O)[C@@]2(O)C(O)=C3C(=O)c4c(O)cccc4[C@@](C)(O)[C@H]3[C@H](O)[C@@H]12 [OTC, oxytetracycline] | 130 | 78.2 | 0.8 | 965 | 409 | 0.00199 | 0.00144 | 2060 | 3520 | 1.76 | 1.48 | 7.96e-05 | 0.00012 |  |  | 
8 | CN(C)[C@@H]1C(O)=C(C(N)=O)C(=O)[C@@]2(O)C(O)=C3C(=O)c4c(O)cccc4C[C@H]3C[C@@H]12 [SC, Sancycline] | 106 | 70 | 0.7 | 59.5 | 70.2 | 0.000127 | 0.000162 | 2140 | 2310 | 0.593 | 0.417 | 6.35e-06 | 5.79e-06 |  |  | 
9 | CN(C)[C@@H]1C(O)=C(C(N)=O)C(=O)[C@@]2(O)C(O)=C3C(=O)c4c(O)cccc4[C@@](C)(O)[C@H]3C[C@@H]12 [TC, tetracycline] | 146 | 85.5 | 1.3 | 7690 | 4790 | 0.00156 | 0.00133 | 203 | 278 | 768 | 62.1 | 0.000156 | 0.000121 |  |  | 
10 | CN(C)CCCN1c2ccccc2Sc2ccc(Cl)cc21 [chlorpromazine] |  |  |  |  |  |  |  |  |  |  |  |  |  |  |  | comparably high
11 | O=C(O)c1cn(C2CC2)c2cc(N3CCNCC3)c(F)cc2c1=O [ciprofloxacin] |  |  |  |  |  |  |  |  |  |  |  |  |  |  |  | comparably high
12 | CN1C(=O)CN=C(c2ccccc2)c2cc(Cl)ccc21 [diazepam] |  |  |  |  |  |  |  |  |  |  |  |  |  |  |  | comparably high
13 | [H]/N=C(/N)N[C@H]1[C@H](O)[C@@H](O)[C@H](O[C@@H]2O[C@@H](C)[C@](O)(C=O)[C@H]2O[C@@H]2O[C@@H](CO)[C@H](O)[C@@H](O)[C@@H]2NC)[C@@H](N/C(N)=N\[H])[C@@H]1O [streptomycin] |  |  |  |  |  |  |  |  |  |  |  |  |  |  |  | comparably high
